The values below come from patent publication US20220289788A1, “3-HYDROXY-5-PREGNANE-20-ONE DERIVATIVE AND USE THEREOF” (priority 2019, published 2022).

Structures are written as SMILES. Structures can show the parent of a compound that is named as a salt.

Experiment in the first data set: not given
The conditions noted are these: cited from earlier work.
With `CC(=O)[C@H]1CC[C@H]2[C@@H]3CC[C@H]4C[C@H](O)CC[C@]4(C)[C@H]3CC[C@]12C` [Allopregnanolone, allopregnanolone, reference compound], the “human plasma half-life period” value was “about 45 minutes”.

A further data set can be described thus: Pharmacokinetic testing after single oral administration, allopregnanolone detected in plasma. It is filed as in vivo. The conditions noted are these: male SD rats, i.g. 20 mg/kg (as allopregnanolone). The text has this: The object of this experiment is to study the single oral administration of each compound solution of the present invention, and an allopregnanolone solution, to detect allopregnanolone, an active ingredient in plasma, and to evaluate its pharmacokinetic (PK) properties in SD rats. The solution was to dissolve each compound in an aqueous solution containing 5% Tween 20.
The male SD rats used in this embodiment, weighing 180-220 g, were purchased from Shanghai SLAC Laboratory Animal Co., Ltd. All animals were fasted overnight, until 4 hours after administration.
The experimental SD rats were grouped by randomized block design, and 5 rats in each group, namely allopregnanolone group, compound 1 hydrochloride group, compound 2 hydrochloride group, compound 14 hydrochloride group, and compound 15 hydrochloride group. Each group was administered by irrigation (i.g.) at a dose of 20 mg/kg (as measured by allopregnanolone).
0.0833 h, 0.25 h, 0.5 h, 1 h, 2 h, 3 h, 4 h, 6 h, 9 h, 12 h, 24 h after the administration, about 0.6 mL of blood sample was collected from peripheral veins and transferred to a commercial centrifuge tube containing 0.85 to 1.15 mg of K2 EDTA anticoagulant (Jiangsu Kangjian Medical Products Co., Ltd.). Within 30 minutes after blood collection, plasma was centrifuged (centrifugation at 3,000 g for 10 minutes at approximately 4° C.). The plasma was placed in a labeled polypropylene tube, quick-frozen in dry ice, then stored in an ultra-low temperature freezer at −60° C. or lower for testing. LC-MS/MS bioassay was used to detect the concentration of drug in SD rat plasma. Blood concentration-time data was analyzed using a non-compartment model and a WinNonlin software package (version6.3 or later), as shown in Table-3.
For `CC(=O)[C@H]1CC[C@H]2[C@@H]3CC[C@H]4C[C@H](O)CC[C@]4(C)[C@H]3CC[C@]12C` [Allopregnanolone, allopregnanolone, reference compound], the AUC0-last is 24.9 ng′ hours/mL.
Same read-out and setting: then `CC(=O)[C@H]1CCC2[C@@H]3CCC4CC(OC(=O)C(NC(=O)CN)C(C)C)CC[C@]4(C)C3CC[C@@]21C` (stereo partly drawn) [Compound 2 hydrochloride], with 196.0 ng′ hours/mL; and `CC(=O)[C@H]1CC[C@H]2[C@@H]3CC[C@H]4C[C@H](OC(=O)CNC(=O)[C@@H](N)C(C)C)CC[C@]4(C)[C@H]3CC[C@]12C` [Compound 14 hydrochloride], with 150.2 ng′ hours/mL; and `CC(=O)[C@H]1CC[C@H]2[C@@H]3CC[C@H]4C[C@H](OC(=O)CNC(=O)CN)CC[C@]4(C)[C@H]3CC[C@]12C` [Compound 15 hydrochloride], with 166.3 ng′ hours/mL.

The nature of another data set: physchem. The conditions noted are these: pH 4.5 buffer solution, 25 °C, pH 4.5, aqueous buffer, thermodynamic from solid.
Protocol: An appropriate amount of the compound of the present invention was weighed, prepared into solutions with different media, respectively, stirred in a constant temperature water bath magnetometer at 25° C. for about 24 hours, and filtered through a 0.22 μm water filter membrane. An appropriate amount of filtrate was diluted to a certain concentration with methanol, and used as a test solution. The concentration of the test solution was determined by HPLC with a UV detector using methanol as a blank control solution.
(2) Reference solution: 5 mg of reference substance was weighed precisely, placed in a 10 mL measuring flask, dissolved with methanol and diluted to scale, and mixed well.
(3) Sample solution: An appropriate amount of sample solution was pipetted, diluted with methanol to about 0.5 mg/mL (determined by the concentration of each sample), and mixed well.
Molecule `CC(=O)[C@H]1CCC2[C@@H]3CCC4CC(OC(=O)C(NC(=O)CN)C(C)C)CC[C@]4(C)C3CC[C@@]21C` (stereo partly drawn) [Compound 2 hydrochloride] yielded a solubility at 24 h greater than 10000 µg/mL.
The same measure, in the same setting: the same measure for `CC(=O)[C@H]1CC[C@H]2[C@@H]3CC[C@H]4C[C@H](OC(=O)[C@H](C)NC(=O)CN)CC[C@]4(C)[C@H]3CC[C@]12C` [Compound 12 hydrochloride]: 1910 µg/mL; for `CC(=O)[C@H]1CC[C@H]2[C@@H]3CC[C@H]4C[C@H](OC(=O)[C@H](C)OC(=O)[C@@H](N)C(C)C)CC[C@]4(C)[C@H]3CC[C@]12C` [Compound 13 hydrochloride]: 10 µg/mL.
Take `CC(=O)[C@H]1CC[C@H]2[C@@H]3CC[C@H]4C[C@H](OC(=O)CNC(=O)[C@@H](N)C(C)C)CC[C@]4(C)[C@H]3CC[C@]12C` [Compound 14 hydrochloride]: the solubility at 24 h was greater than 50000 µg/mL.
Same read-out and setting: the same measure for `CC(=O)[C@H]1CC[C@H]2[C@@H]3CC[C@H]4C[C@H](OC(=O)CNC(=O)[C@H](C)N)CC[C@]4(C)[C@H]3CC[C@]12C` [Compound 23 hydrochloride]: 970 µg/mL.

The same data set, now with this note: water, 25 °C, thermodynamic from solid.
`CC(=O)[C@H]1CCC2[C@@H]3CCC4CC(OC(=O)C(NC(=O)CN)C(C)C)CC[C@]4(C)C3CC[C@@]21C` (stereo partly drawn) [Compound 2 hydrochloride] returned a solubility at 24 h greater than 10000 µg/mL.
On to `CC(=O)[C@H]1CCC2[C@@H]3CCC4CC(OC(=O)C(NC(=O)C5CCCN5)C(C)C)CC[C@]4(C)C3CC[C@@]21C` (stereo partly drawn) [Compound 4 hydrochloride], for which the solubility at 24 h turned out to be 190 µg/mL.
The same measure, in the same setting: then `CC(=O)[C@H]1CCC2[C@@H]3CCC4CC(OC(=O)C(NC(=O)C(N)Cc5c[nH]c6ccccc56)C(C)C)CC[C@]4(C)C3CC[C@@]21C` (stereo partly drawn) [Compound 5 hydrochloride], with 70 µg/mL; and `CC(=O)[C@H]1CC[C@H]2[C@@H]3CC[C@H]4C[C@H](OC(=O)[C@@H](NC(=O)C(C)N)C(C)C)CC[C@]4(C)[C@H]3CC[C@]12C` (stereo partly drawn) [Compound 6 hydrochloride], with 5680 µg/mL.
On the same count and under the same terms, then `CC(=O)[C@H]1CC[C@H]2[C@@H]3CC[C@H]4CC(OC(=O)C(NC(=O)C(N)CC(C)C)C(C)C)CC[C@]4(C)[C@H]3CC[C@]12C` (stereo partly drawn) [Compound 7 hydrochloride], with 7380 µg/mL.
Still for that read-out and setting: the same measure for `CC(=O)[C@H]1CC[C@H]2[C@@H]3CC[C@H]4C[C@H](OC(=O)[C@H](C)NC(=O)CN)CC[C@]4(C)[C@H]3CC[C@]12C` [Compound 12 hydrochloride]: 2620 µg/mL; for `CC(=O)[C@H]1CC[C@H]2[C@@H]3CC[C@H]4C[C@H](OC(=O)[C@H](C)OC(=O)[C@@H](N)C(C)C)CC[C@]4(C)[C@H]3CC[C@]12C` [Compound 13 hydrochloride]: 370 µg/mL.
In the case of `CC(=O)[C@H]1CC[C@H]2[C@@H]3CC[C@H]4C[C@H](OC(=O)CNC(=O)[C@@H](N)C(C)C)CC[C@]4(C)[C@H]3CC[C@]12C` [Compound 14 hydrochloride], the solubility at 24 h is greater than 10000 µg/mL.
Still for that read-out and setting: the same measure for `CC(=O)[C@H]1CC[C@H]2[C@@H]3CC[C@H]4C[C@H](OC(=O)CNC(=O)CN)CC[C@]4(C)[C@H]3CC[C@]12C` [Compound 15 hydrochloride]: 1110 µg/mL; for `CC(=O)[C@H]1CC[C@H]2[C@@H]3CC[C@H]4C[C@H](OC(=O)CNC(=O)[C@H](C)N)CC[C@]4(C)[C@H]3CC[C@]12C` [Compound 23 hydrochloride]: 640 µg/mL.

Another data set is described as follows: Stability of compound in 5% glucose solution (HPLC purity over time). The conditions noted are these: about 1 mg/g, room temperature, 0 hour. It is filed as physicochemical. The method, then: An appropriate amount of the derivative of the present invention was weighed respectively, dissolved in a 5% glucose solution and prepared into a solution with a concentration of about 1 mg/g.
(1) Blank solution: Methanol.
(2) Sample solution: A suitable solution was taken and filtered through a 0.22 μm filter membrane.
The molecule `CC(=O)[C@H]1CCC2[C@@H]3CCC4CC(OC(=O)C(NC(=O)CN)C(C)C)CC[C@]4(C)C3CC[C@@]21C` (stereo partly drawn) [Compound 2 hydrochloride] displayed a Purity of 95.00%.
Same read-out and setting: then `CC(=O)[C@H]1CC[C@H]2[C@@H]3CC[C@H]4C[C@H](OC(=O)[C@H](C)NC(=O)[C@@H](N)C(C)C)CC[C@]4(C)[C@H]3CC[C@]12C` [Compound 10 hydrochloride], with 99.12%.

The data set is the same for the next values; noted with them: about 1 mg/g, room temperature, 1 hour.
`CC(=O)[C@H]1CCC2[C@@H]3CCC4CC(OC(=O)C(NC(=O)CN)C(C)C)CC[C@]4(C)C3CC[C@@]21C` (stereo partly drawn) [Compound 2 hydrochloride] came in with a Purity of 94.59%.
The molecule `CC(=O)[C@H]1CC[C@H]2[C@@H]3CC[C@H]4C[C@H](OC(=O)[C@H](C)NC(=O)[C@@H](N)C(C)C)CC[C@]4(C)[C@H]3CC[C@]12C` [Compound 10 hydrochloride] gave a Purity of 99.09%.

The data set is the same for the next values; noted with them: about 1 mg/g, room temperature, 3 hours.
In turn, `CC(=O)[C@H]1CCC2[C@@H]3CCC4CC(OC(=O)C(NC(=O)CN)C(C)C)CC[C@]4(C)C3CC[C@@]21C` (stereo partly drawn) [Compound 2 hydrochloride] showed a Purity of 94.50%.
Still for that read-out and setting: then `CC(=O)[C@H]1CC[C@H]2[C@@H]3CC[C@H]4C[C@H](OC(=O)[C@H](C)NC(=O)[C@@H](N)C(C)C)CC[C@]4(C)[C@H]3CC[C@]12C` [Compound 10 hydrochloride], with 99.04%.

Still in this data set, the particulars now being: about 1 mg/g, room temperature, 5 hours.
Molecule `CC(=O)[C@H]1CCC2[C@@H]3CCC4CC(OC(=O)C(NC(=O)CN)C(C)C)CC[C@]4(C)C3CC[C@@]21C` (stereo partly drawn) [Compound 2 hydrochloride] had a Purity of 94.05%.
The same measure, in the same setting: then `CC(=O)[C@H]1CC[C@H]2[C@@H]3CC[C@H]4C[C@H](OC(=O)[C@H](C)NC(=O)[C@@H](N)C(C)C)CC[C@]4(C)[C@H]3CC[C@]12C` [Compound 10 hydrochloride], with 98.05%.

Staying with this data set, now noted: about 1 mg/g, room temperature, 8 hours.
The molecule `CC(=O)[C@H]1CCC2[C@@H]3CCC4CC(OC(=O)C(NC(=O)CN)C(C)C)CC[C@]4(C)C3CC[C@@]21C` (stereo partly drawn) [Compound 2 hydrochloride] gave a Purity of 94.33%.
Same read-out and setting: the same measure for `CC(=O)[C@H]1CC[C@H]2[C@@H]3CC[C@H]4C[C@H](OC(=O)[C@H](C)NC(=O)[C@@H](N)C(C)C)CC[C@]4(C)[C@H]3CC[C@]12C` [Compound 10 hydrochloride]: 97.89%.
